Experimental findings from patent publication US9295665B2, “Inhibition of neovascularization by simultaneous inhibition of prostanoid IP and EP4 receptors” (ALLERGAN, INC., priority 2013, dated 2016) are described below.

The target of experiment [1] is T1, IP receptor (Homo sapiens, UniProt P43119). Put plainly: Cellular Dielectric Spectroscopy (impedance) in human retinal microvascular endothelial cells, IP agonist. The class given is cell-based. Details: TNFα-stimulated human macrophages, obtained from individual donors; endogenous in cells; host or cells: TNFα-stimulated human macrophages from individual donors. The following applies: HRMECs, normalized to PGE2 at 10 μM; read-out: EC50, change in impedance. The protocol: Cellular dielectric spectroscopy, as known in the art, was employed to determine EC50 levels for EP4 agonist and IP agonist in human retinal microvascular endothelial cells (HRMECs). […].
Cellular Dielectric Spectroscopy (CDS) is a label-free technology to measure the changes in impedance of cells in response to receptor stimulation. HRMEC cells were seeded at on 96 well plates (CDS plates) coated with fibronectin and incubated for 24 hrs at 37° C., 5% CO2. On the day of the experiment, the culture medium was replaced by HBSS, BSA 1% and incubated for 1 h at 28° C. Compounds were then added and the signal was monitored for 10 minutes at 28° C. Compounds were tested at the following final concentrations in assay buffer containing 0.1% DMSO: 1E-12, 1E-11, 1E-10, 1E-9, 1E-8, 1E-7, 1E-6, and 1E-5M. The background signal (buffer only) was systematically subtracted to the signal in order to determine the specific signal. The effect of EP4 agonist Formula V and IP agonist Cicaprost were normalized to the signal of the positive control PGE2 at 10 μM. All data were generated in duplicate.

In experiment [2] the target is T1, IP receptor. Put plainly: VEGF secretion in TNFα-stimulated human macrophages (IP agonist / IP antagonist).
Description: (§1) Histogram ordering (both panels, left to right): No stimulus; vehicle; 0.1 nM; 1 nM; 10 nM; 100 nM; 1000 nM of agonist.
The target of experiment [3] is EP4 receptor (Homo sapiens, UniProt P35408). The experiment can be described thus: VEGF secretion in TNFα-stimulated human macrophages (EP4 agonist / EP4 antagonist). The following applies: 100 nM PGE2, TNFα-stimulated human macrophages from individual donors, 1, 3, 10 μM antagonist, n=3.
Description: as §1

As a reminder, the EC50 is the concentration at which the effect is half-maximal.

SMILES strings stand for the structures.

T1 sequence (P43119 whole entry): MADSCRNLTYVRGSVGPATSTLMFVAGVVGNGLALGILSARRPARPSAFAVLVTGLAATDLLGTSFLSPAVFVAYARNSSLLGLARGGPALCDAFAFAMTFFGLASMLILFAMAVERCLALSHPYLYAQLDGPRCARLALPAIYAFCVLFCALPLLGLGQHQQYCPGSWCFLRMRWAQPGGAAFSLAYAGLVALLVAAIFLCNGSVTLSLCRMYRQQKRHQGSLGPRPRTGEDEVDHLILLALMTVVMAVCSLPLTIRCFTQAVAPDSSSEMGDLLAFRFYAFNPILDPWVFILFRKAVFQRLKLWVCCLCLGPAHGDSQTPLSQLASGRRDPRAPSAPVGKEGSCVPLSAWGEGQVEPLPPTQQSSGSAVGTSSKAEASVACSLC
Sequence of EP4 receptor (P35408 whole entry): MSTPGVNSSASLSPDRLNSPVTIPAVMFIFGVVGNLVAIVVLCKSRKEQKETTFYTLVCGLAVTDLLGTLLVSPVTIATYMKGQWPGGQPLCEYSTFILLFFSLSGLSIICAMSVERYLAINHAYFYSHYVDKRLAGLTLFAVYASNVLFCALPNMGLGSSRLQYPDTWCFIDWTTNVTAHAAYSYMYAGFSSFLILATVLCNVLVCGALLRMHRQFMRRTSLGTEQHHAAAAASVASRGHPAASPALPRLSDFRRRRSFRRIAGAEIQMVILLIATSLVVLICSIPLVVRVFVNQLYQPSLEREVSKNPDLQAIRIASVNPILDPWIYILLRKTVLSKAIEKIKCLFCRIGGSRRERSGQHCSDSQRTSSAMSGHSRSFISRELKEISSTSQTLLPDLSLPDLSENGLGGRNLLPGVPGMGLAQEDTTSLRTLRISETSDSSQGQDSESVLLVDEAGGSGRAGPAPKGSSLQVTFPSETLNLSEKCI

As to `CCC#CC[C@H](C)[C@H](O)C#C[C@@H]1[C@H]2C/C(=C/COCC(=O)O)C[C@H]2C[C@H]1O` [Cicaprost, cicaprost], the values for the EC50 in experiment [1] and in experiment [2] were 18 nM and 2.3 nM, respectively.

For `CCOc1c2c(c(OCC)c3ccccc13)C(=O)N(c1ccc(CC(=O)NS(=O)(=O)c3ccccc3)cc1)C2` [Formula IV], the “Inhibition of PGE2-induced VEGF secretion” value in experiment [3] is listed as “dose dependently inhibiting”.

For the compound `CC(C)Oc1ccc(Cc2ccc(NC3=NCCN3)cc2)cc1` [Formula I], the “Inhibition of Cicaprost-induced VEGF secretion” value in experiment [2] (100 nM Cicaprost, TNFα-stimulated human macrophages from individual donors, 1, 3, 10 μM antagonist, n=2) was “dose dependently inhibiting”.
